Experiments:
[1] = molecular target: T1, human sodium channels Nav 1.7 (Homo sapiens, UniProt Q15858); test: Automated whole-cell voltage-clamp (ScreenPatch 384P) sodium current block, Nav 1.7; type: cell-based; details: CHO cells stably expressing human Nav 1.7; inactivation step -40 mV for 8 seconds, test step 0 mV (TP1A); exposure at least five minutes; room temperature; mean if two or more assays; read-out: Nav1.7 IC50
T1 construct: expressed in transfected cells
Description: (§1) Biological assays were performed on Chinese hamster ovary (CHO) cells that express human sodium channels Nav 1.8 or Nav 1.7 in a stable manner.
(§2) The experimental protocol voltage-clamp using the whole cell configuration was established on the automated ScreenPatch® 384P platform (SP384PE, Nanion Technologies, Livingston, NJ) and the results were recorded with a Nanion 384-well Patch Clamp chip (NPC) (Nanion Technologies, Livingston, NJ).
(§3) Formula I compounds were diluted in eight concentrations in the extracellular solution composed of saline saline solution, buffered with HEPES (mM): NaCl, 137; KCl, 4; CaCl2, 3,8; MgCl2, 1; HEPES, 10; Glucose, 10; pH 7.4. The […], 50; CsF, 90; MgCl2, 5; EGTA, 5; HEPES, 10; pH 7.2. The duration of exposure of each compound with cells expressing Nav 1.7 or Nav 1.8 was at least five minutes and the assays were performed at room temperature.
(§4) The measurements of the sodium currents of Nav 1.8 and Nav 1.7 were obtained using the voltage protocol described below.
(§5) A holding voltage of -100 mV was established followed by an inactivation voltage step at -40 mV for 8 seconds, followed by a step of -100 mV for 20 ms, followed by a 20 ms step for 10 mV for Nav 1.8 or 0 mV for Nav 1.7 (TP1A) before returning to the holding voltage of -100 mV.
(§6) The protocol was repeated at a frequency of 0.05 Hz and the amplitude of the current was quantified throughout the recording of the TP1A phase. The variation in the amplitude of the peak current was evaluated according to the formula described below, after exposing the cells expressing the channels to each concentration of the different compounds: % Block = (1−(ITP1A,molecule/ITP1A,basal)×100%, [formula] wherein ITP1A,basal and ITP1A,molecule represent the peaks of sodium current input into TP1A before exposure to the compound and in the presence of the compound, respectively.
(§7) Data were obtained by nonlinear regression (nonlinear least squares) with XLfit for Excel (Microsoft, Redmond, WA).
(§8) The compounds were tested in at least one assay to obtain the value of CI50. For compounds that were tested in two or more assays, the results are described as the mean of the CI50 values.

[2] = molecular target: T2, human sodium channels Nav 1.8 (Homo sapiens, UniProt Q9Y5Y9); test: Automated whole-cell voltage-clamp (ScreenPatch 384P) sodium current block, Nav 1.8; type: cell-based; details: CHO cells stably expressing human Nav 1.8; inactivation step -40 mV for 8 seconds, test step 10 mV (TP1A); exposure at least five minutes; room temperature; mean if two or more assays; read-out: Nav1.8 IC50
T2 construct: expressed in transfected cells
T2 sequence (Q9Y5Y9 whole entry): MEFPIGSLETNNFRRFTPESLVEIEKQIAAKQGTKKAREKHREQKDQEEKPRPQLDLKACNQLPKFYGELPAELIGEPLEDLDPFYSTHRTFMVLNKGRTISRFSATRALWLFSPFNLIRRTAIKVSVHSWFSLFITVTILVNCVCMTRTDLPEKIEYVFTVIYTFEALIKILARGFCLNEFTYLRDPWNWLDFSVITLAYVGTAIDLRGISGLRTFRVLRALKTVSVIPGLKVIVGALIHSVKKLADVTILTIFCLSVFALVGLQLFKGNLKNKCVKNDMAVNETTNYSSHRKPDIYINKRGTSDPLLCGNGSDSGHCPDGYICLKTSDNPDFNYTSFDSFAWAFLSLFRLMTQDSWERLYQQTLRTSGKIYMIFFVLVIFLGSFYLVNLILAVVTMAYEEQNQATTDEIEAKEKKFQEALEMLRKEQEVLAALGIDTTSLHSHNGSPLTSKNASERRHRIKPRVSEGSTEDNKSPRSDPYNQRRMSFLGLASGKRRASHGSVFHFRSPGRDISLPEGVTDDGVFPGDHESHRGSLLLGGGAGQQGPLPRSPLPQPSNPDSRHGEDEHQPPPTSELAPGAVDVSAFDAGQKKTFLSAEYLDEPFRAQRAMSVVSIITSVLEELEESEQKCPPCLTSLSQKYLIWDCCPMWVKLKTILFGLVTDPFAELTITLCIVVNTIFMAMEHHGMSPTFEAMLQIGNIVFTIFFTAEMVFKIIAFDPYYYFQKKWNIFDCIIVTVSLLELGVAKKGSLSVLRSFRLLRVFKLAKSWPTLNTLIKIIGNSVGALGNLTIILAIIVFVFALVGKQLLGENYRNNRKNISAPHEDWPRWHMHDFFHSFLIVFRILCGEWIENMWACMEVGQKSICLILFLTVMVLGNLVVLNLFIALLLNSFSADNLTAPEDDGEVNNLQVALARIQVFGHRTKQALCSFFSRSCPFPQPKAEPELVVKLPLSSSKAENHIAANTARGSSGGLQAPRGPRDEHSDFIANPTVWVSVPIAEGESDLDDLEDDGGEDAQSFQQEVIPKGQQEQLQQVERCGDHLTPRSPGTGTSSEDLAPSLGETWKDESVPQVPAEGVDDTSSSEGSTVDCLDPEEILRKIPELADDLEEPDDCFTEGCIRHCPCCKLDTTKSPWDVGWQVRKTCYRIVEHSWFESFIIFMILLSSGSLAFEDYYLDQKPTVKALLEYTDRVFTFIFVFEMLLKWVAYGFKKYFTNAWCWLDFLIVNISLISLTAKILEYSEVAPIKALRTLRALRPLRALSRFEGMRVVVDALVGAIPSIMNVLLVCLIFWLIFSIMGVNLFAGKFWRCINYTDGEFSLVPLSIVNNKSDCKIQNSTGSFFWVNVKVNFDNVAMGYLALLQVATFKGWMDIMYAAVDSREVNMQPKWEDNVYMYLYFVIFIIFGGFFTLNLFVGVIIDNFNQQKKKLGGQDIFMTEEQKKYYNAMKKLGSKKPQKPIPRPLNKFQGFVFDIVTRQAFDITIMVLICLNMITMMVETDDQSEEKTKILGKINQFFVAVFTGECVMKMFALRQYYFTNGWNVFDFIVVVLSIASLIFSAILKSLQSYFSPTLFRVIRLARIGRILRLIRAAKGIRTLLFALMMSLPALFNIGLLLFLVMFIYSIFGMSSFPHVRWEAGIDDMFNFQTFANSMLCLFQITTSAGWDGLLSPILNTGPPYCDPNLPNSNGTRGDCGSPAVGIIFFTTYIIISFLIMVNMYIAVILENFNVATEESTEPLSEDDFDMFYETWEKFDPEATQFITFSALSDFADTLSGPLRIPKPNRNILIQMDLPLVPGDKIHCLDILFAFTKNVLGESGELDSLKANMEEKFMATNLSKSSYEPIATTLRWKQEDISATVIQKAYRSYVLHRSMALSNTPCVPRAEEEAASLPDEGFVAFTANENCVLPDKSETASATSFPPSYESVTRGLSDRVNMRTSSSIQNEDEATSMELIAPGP
Description: as §1, §2, §3, §4, §5, §6, §7, §8

T1 sequence (Q15858 whole entry): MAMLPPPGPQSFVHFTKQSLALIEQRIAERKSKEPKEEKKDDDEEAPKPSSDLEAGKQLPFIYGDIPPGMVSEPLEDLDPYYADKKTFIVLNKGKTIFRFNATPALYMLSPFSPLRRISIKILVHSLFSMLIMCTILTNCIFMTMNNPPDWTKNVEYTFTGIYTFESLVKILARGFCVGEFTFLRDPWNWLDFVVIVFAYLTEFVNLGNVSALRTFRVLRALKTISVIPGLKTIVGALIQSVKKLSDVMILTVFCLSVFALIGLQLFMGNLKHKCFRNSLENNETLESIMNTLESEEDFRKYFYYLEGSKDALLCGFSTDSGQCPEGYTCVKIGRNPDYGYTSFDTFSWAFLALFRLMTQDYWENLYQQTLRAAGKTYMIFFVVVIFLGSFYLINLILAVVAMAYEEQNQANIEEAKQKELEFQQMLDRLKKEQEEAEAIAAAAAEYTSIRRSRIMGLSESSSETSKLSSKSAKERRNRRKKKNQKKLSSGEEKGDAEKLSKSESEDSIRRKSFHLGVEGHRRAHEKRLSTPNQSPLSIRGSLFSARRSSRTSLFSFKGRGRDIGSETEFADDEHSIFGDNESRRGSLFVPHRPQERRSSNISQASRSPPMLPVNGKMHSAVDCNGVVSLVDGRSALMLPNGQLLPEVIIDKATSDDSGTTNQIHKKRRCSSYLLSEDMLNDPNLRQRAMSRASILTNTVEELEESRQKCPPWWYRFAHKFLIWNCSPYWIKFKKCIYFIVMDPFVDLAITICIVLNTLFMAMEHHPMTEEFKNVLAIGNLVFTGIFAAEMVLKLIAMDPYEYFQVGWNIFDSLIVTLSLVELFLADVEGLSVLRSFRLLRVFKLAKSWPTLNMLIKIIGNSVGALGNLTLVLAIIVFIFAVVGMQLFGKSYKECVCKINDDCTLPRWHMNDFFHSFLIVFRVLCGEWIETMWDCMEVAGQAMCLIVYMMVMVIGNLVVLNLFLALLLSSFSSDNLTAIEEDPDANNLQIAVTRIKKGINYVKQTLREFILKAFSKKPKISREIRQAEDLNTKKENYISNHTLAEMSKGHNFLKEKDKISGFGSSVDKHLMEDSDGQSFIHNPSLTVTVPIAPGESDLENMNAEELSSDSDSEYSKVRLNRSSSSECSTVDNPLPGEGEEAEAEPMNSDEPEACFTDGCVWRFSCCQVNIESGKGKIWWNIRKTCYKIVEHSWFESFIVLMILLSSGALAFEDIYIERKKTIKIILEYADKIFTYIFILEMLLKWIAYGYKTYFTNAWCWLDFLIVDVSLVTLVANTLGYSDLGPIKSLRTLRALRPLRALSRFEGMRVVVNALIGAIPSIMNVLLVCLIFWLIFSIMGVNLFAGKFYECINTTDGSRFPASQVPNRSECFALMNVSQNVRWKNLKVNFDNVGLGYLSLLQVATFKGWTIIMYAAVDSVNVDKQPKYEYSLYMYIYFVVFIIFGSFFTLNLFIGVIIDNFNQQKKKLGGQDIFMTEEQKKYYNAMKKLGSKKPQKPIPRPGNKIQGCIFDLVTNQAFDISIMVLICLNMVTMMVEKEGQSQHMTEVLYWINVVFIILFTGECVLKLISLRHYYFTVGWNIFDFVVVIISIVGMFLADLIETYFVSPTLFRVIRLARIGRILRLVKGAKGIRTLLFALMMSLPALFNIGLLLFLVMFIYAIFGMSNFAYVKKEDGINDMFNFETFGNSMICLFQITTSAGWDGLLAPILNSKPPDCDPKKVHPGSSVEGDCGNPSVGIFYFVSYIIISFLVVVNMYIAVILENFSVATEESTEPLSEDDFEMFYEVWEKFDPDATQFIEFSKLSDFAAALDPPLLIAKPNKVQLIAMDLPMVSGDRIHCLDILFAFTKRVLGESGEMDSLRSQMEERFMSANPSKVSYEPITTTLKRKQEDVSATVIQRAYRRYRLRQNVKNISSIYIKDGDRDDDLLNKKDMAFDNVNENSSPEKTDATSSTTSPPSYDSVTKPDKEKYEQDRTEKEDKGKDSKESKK

Row | Structure (SMILES) | IC50 [1] [nM] | IC50 [2] [nM]
1 | CCOc1ccc(-c2cnc(O)c(C(=O)NOCc3cc(OC)ccc3F)n2)cn1 [Compound 101] | > 1000 | > 1000
2 | COc1ccc(F)c(CONC(=O)c2cnc(N)c(-c3ccc(OC(F)F)nc3)n2)c1 [Compound 122] | > 1000 | > 1000
3 | CCOc1ccc(-c2cccc(C(=O)NOCc3cc(OC)cnc3F)n2)cn1 [Compound 107] | > 1000 | > 1000
4 | CCOc1ccc(-c2cc(O)nc(C(=O)NOCc3cc(OC)ccc3F)n2)cc1 [Compound 113] | > 1000 | < 500
5 | CCOc1ccc(-c2nccc(C(=O)NOCc3cc(OC)ccc3F)n2)cn1 [Compound 109] | > 1000 | < 500
6 | CCOc1ccc(-c2nccc(C(=O)NOCc3cc(OC)cnc3F)n2)cn1 [Compound 110] | 500 to 1000 | < 500
7 | CCOc1ccc(-c2cncc(C(=O)NOCc3cncc(OC)c3)n2)cc1 [Compound 8, 6-(4-ethoxyphenyl)-N-((5-methoxypyridine-3-yl)methoxy)pyrazine-2-carboxamide] | > 1000 | > 1000
8 | CCOc1ccc(-c2cncc(C(=O)NOCc3[nH]ccc3C#N)n2)cn1 [Compound 68] | > 1000 | > 1000
9 | CCOc1ccc(-c2cncc(C(=O)NOCc3cncn3C(C)C)n2)cn1 [Compound 63] | > 1000 | > 1000
10 | CCOc1ccc(-c2cncc(C(=O)NOCc3cc(OC)ccc3F)n2)c(O)c1 [Compound 85] | > 1000 | > 1000
11 | COc1ccc(F)c(CONC(=O)c2ccnc(-c3ccc(OC(F)F)nc3)n2)c1 [Compound 118] | > 1000 | < 500
12 | CCOc1ccc(-c2cncc(C(=O)NOCc3cc(OC)ccc3F)n2)c(OC)c1 [Compound 87] | > 1000 | < 500
13 | CCOc1ccc(-c2cncc(C(=O)NOCc3cccc(O)c3)n2)cc1 [Compound 7, 6-(4-ethoxyphenyl)-N-((3-hydroxybenzyl)oxy)pyrazine-2-carboxamide] | > 1000 | > 1000
14 | COc1ccc(F)c(CONC(=O)c2cncc(-c3ccc(OC(F)F)nc3)n2)c1 [Compound 77] | > 1000 | > 1000
15 | CCOc1ccc(-c2cncc(C(=O)NOCc3cc(OC)ccc3F)n2)c(C)n1 [Compound 92] | > 1000 | < 500
16 | COc1cnc(F)c(CONC(=O)c2cncc(-c3ccc(OC(F)F)nc3)n2)c1 [Compound 78] | > 1000 | > 1000
17 | CCOc1ccc(-c2nc(C(=O)NOCc3cc(OC)ccc3F)cnc2N)cn1 [Compound 102] | > 1000 | < 500
18 | COc1ccc(F)c(CONC(=O)c2cncc(-c3ccc(O)cc3)n2)c1 [Compound 1, N-((2-fluoro-5-methoxybenzyl)oxy)-6-(4-hydroxyphenyl)pyrazine-2-carboxamide] | > 1000 | > 1000
19 | CCOc1ccc(-c2cncc(C(=O)NOCc3ccnn3C(C)C)n2)cn1 [Compound 64] | > 1000 | > 1000

Other lines, results leading:

Row | IC50 [1] [nM] | IC50 [2] [nM] | Structure (SMILES)
20 | > 1000 | > 1000 | [2H]C([2H])([2H])COc1ccc(-c2cncc(C(=O)NOCc3cc(OC([2H])([2H])[2H])ccc3F)n2)cn1 [Compound 52, 6-(6-(ethoxy-2,2,2-d3)pyridine-3-yl)-N-((2-fluoro-5-(methoxy-d3)benzyl)oxy)pyrazine-2-carboxamide]
21 | > 1000 | < 500 | CCOc1ccc(-c2cncc(C(=O)NOCc3cc(OC)ccc3F)n2)cc1 [Compound 9, 6-(4-ethoxyphenyl)-N-((2-fluoro-5-methoxybenzyl)oxy)pyrazine-2-carboxamide]
22 | > 1000 | 500 to 1000 | COc1ccc(F)c(CONC(=O)c2cncc(-c3ccc(OC4CN(C)C4)cc3)n2)c1 [Compound 25, N-((2-fluoro-5-methoxybenzyl)oxy)-6-(4-((1-methylazetidine-3-yl)oxy)phenyl)pyrazine-2-carboxamide]
23 | > 1000 | < 500 | CCOc1ccc(-c2cncc(C(=O)NOCc3cncc(OC)c3)n2)cn1 [Compound 36, 6-(6-ethoxypyridine-3-yl)-N-((5-methoxypyridine-3-yl)methoxy)pyrazine-2-carboxamide]
24 | > 1000 | > 1000 | CCOc1ccc(-c2cncc(C(=O)NOCc3cc(OC)cnc3C)n2)cn1 [Compound 46, 6-(6-ethoxypyridine-3-yl)-N-((5-methoxy-2-methylpyridine-3-yl)methoxy)pyrazine-2-carboxamide]
25 | > 1000 | > 1000 | CCOc1ccc(-c2cncc(C(=O)NOCc3cc(OC)ccc3O)n2)cn1 [Compound 44, 6-(6-ethoxypyridine-3-yl)-N-((2-hydroxy-5-methoxybenzyl)oxy)pyrazine-2-carboxamide]
26 | > 1000 | < 500 | COc1ccc(F)c(CONC(=O)c2cncc(-c3ccc(OCCC4CN(C)C4)cc3)n2)c1 [Compound 27, N-((2-fluoro-5-methoxybenzyl)oxy)-6-(4-(2-(1-methylazetidine-3-yl)ethoxy)phenyl)pyrazine-2-carboxamide]
27 | > 1000 | > 1000 | [2H]C([2H])(C)Oc1ccc(-c2cncc(C(=O)NOCc3cc(OC)ccc3F)n2)cn1 [Compound 50, 6-(6-(ethoxy-1,1-d2)pyridine-3-yl)-N-((2-fluoro-5-methoxybenzyl)oxy)pyrazine-2-carboxamide]
28 | > 1000 | > 1000 | CCOc1ccc(-c2cncc(C(=O)NOCc3[nH]cnc3C)n2)cn1 [Compound 59, 6-(6-ethoxypyridine-3-yl)-N-((4-methyl-1H-imidazole-5-yl)methoxy)pyrazine-2-carboxamide]
29 | > 1000 | > 1000 | CCOc1ccc(-c2cncc(C(=O)NOCc3ccccc3O)n2)cn1 [Compound 34, 6-(6-ethoxypyridine-3-yl)-N-((2-hydroxybenzyl)oxy)pyrazine-2-carboxamide]
30 | > 1000 | > 1000 | CCOc1ccc(-c2cncc(C(=O)NOCc3cc(OC)ccc3O)n2)cc1 [Compound 16, 6-(4-ethoxyphenyl)-N-((2-hydroxy-5-methoxybenzyl)oxy)pyrazine-2-carboxamide]
31 | > 1000 | < 500 | COc1cncc(CONC(=O)c2cncc(-c3ccc(OC(F)F)cc3)n2)c1 [Compound 28, 6-(4-(difluoromethoxy)phenyl)-N-((5-methoxypyridine-3-yl)methoxy)pyrazine-2-carboxamide]
32 | > 1000 | < 500 | CCOc1ccc(-c2cncc(C(=O)NOCc3cc(OC)ccc3F)n2)cn1 [Compound 37, 6-(6-ethoxypyridine-3-yl)-N-((2-fluoro-5-methoxybenzyl)oxy)pyrazine-2-carboxamide]
33 | 500 to 1000 | < 500 | [2H]C([2H])([2H])Oc1ccc(F)c(CONC(=O)c2cncc(-c3ccc(OCC)nc3)n2)c1 [Compound 55, 6-(6-ethoxypyridine-3-yl)-N-((2-fluoro-5-(methoxy-d3)benzyl)oxy)pyrazine-2-carboxamide]
34 | > 1000 | < 500 | CCOc1ccc(-c2cncc(C(=O)NOCc3cc(OC)ncc3F)n2)cc1 [Compound 13, 6-(4-ethoxyphenyl)-N-((5-fluoro-2-methoxypyridine-4-yl)methoxy)pyrazine-2-carboxamide]
35 | > 1000 | < 500 | CCOc1ccc(-c2cncc(C(=O)NOCc3cc(OC)cnc3F)n2)cc1 [Compound 12, 6-(4-ethoxyphenyl)-N-((2-fluoro-5-methoxypyridine-3-yl)methoxy)pyrazine-2-carboxamide]
36 | > 1000 | > 1000 | COc1ccc(F)c(CONC(=O)c2cncc(-c3ccc(OC4CNC4)cc3)n2)c1 [Compound 22, 6-(4-(azetidin-3-yloxy)phenyl)-N-((2-fluoro-5-methoxybenzyl)oxy)pyrazine-2-carboxamide]
37 | > 1000 | > 1000 | COc1cc(CONC(=O)c2cncc(-c3ccc(OC(F)F)nc3)n2)c(F)cn1 [Compound 79, 6-(6-(difluoromethoxy)pyridine-3-yl)-N-((5-fluoro-2-methoxypyridine-4-yl)methoxy)pyrazine-2-carboxamide]
38 | > 1000 | > 1000 | COc1ccc(F)c(CONC(=O)c2cncc(-c3ccc(OCCC4CNC4)cc3)n2)c1 [Compound 24, 6-(4-(2-(azetidine-3-yl)ethoxy)phenyl)-N-((2-fluoro-5-methoxybenzyl)oxy)pyrazine-2-carboxamide]

From patent EP4660184A1 (Eurofarma Laboratórios S.A., priority 2023, dated 2024)
